Measurements taken from ChEMBL document CHEMBL5608163, “Structure modification of anoplin for fighting resistant bacteria” (Eur J Med Chem, 2024).
Values after ≈ are worked out from the molar mass of the structure shown. Square brackets hold non-standard residues; d marks the D form. Peptide text beside a SMILES is read from it. Gly(N(CH2)2(3-indolyl)) = O=C(O)CNCCc1c[nH]c2ccccc12; βAla = NCCC(=O)O

Assays:
Erythrocyte [1] = experiment: Hemolytic activity in mouse RBC; type: toxicity, cell-based
Escherichia coli [2] = experiment: Antimicrobial activity against Escherichia coli assessed as reduction in microbial growth by broth micro-dilution method; type: functional
Staphylococcus aureus [3] = experiment: Antimicrobial activity against Staphylococcus aureus assessed as reduction in microbial growth by broth microdilution method; type: functional
Staphylococcus aureus [4] = experiment: Antibacterial activity against Staphylococcus aureus ATCC 25923 assessed as reduction in bacterial cell growth incubated for 18 hrs by two fold serial microdilution method; type: functional
Pseudomonas aeruginosa [5] = experiment: Antibacterial activity against Pseudomonas aeruginosa ATCC 27853 assessed as reduction in bacterial cell growth incubated for 18 hrs by two fold serial microdilution method; type: functional
Acinetobacter baumannii = experiment: Antibacterial activity against Acinetobacter baumannii ATCC 19606 assessed as inhibition in bacterial growth incubated for 20 to 24 hrs by CLSI based broth microdilution method; type: functional; details: time 20-24 hrs
Escherichia coli [6] = experiment: Antibacterial activity against Escherichia coli ATCC 25922 assessed as reduction in bacterial cell growth incubated for 18 hrs by two fold serial microdilution method; type: functional
Klebsiella pneumoniae [7] = experiment: Antibacterial activity against Klebsiella pneumoniae ATCC 700603 assessed as reduction in bacterial cell growth incubated for 18 hrs by two fold serial microdilution method; type: functional
[8] = tested on: Staphylococcus epidermidis; experiment: Antibacterial activity against Staphylococcus epidermidis ATCC 12228 assessed as reduction in bacterial cell growth incubated for 18 hrs by two fold serial microdilution method; type: functional
Erythrocyte [9] = experiment: Hemolytic activity in mouse Red blood cells incubated for 1 hr; type: toxicity, cell-based
Escherichia coli [10] = experiment: Antibacterial activity against Escherichia coli ATCC 25922 assessed as reduction in bacterial growth incubated for 18 to 20 hrs by Mueller Hinton broth dilution method; type: functional; details: time 18-20 hrs
Bacillus subtilis = experiment: Antibacterial activity against Bacillus subtilis ATCC 23857 assessed as reduction in bacterial growth incubated for 18 to 20 hrs by Mueller Hinton broth dilution method; type: functional; details: time 18-20 hrs
Staphylococcus aureus [11] = experiment: Antibacterial activity against Staphylococcus aureus ATCC 25923 assessed as reduction in bacterial growth incubated for 18 to 20 hrs by Mueller Hinton broth dilution method; type: functional; details: time 18-20 hrs
Klebsiella pneumoniae [12] = experiment: Antimicrobial activity against Klebsiella pneumoniae assessed as reduction in bacterial growth incubated for 18 to 20 hrs by Mueller-Hinton broth based microdilution method; type: functional; details: time 18-20 hrs
Erythrocyte [13] = experiment: Hemolytic activity in mouse Red blood cells incubated for 1 hr by microplate reader assay; type: toxicity, cell-based; details: erythrocyte, 1 h
Pseudomonas aeruginosa [14] = experiment: Antibacterial activity against Pseudomonas aeruginosa ATCC 27853 assessed as reduction in bacterial growth incubated for 18 to 20 hrs by Mueller Hinton broth dilution method; type: functional; details: time 18-20 hrs

Structure (SMILES) | HC10 (Erythrocyte [1]) [µM] | MIC (Escherichia coli [2]) [µM] | MIC (Staphylococcus aureus [3]) [µM] | MIC (Staphylococcus aureus [4]) [µM] | MIC (Pseudomonas aeruginosa [5]) [µM] | MIC (Acinetobacter baumannii) [µM] | MIC (Escherichia coli [6]) [µM] | MIC (Klebsiella pneumoniae [7]) [µM] | MIC [8] [µM] | HC10 (Erythrocyte [9]) [µM] | MIC (Escherichia coli [10]) [µM] | MIC (Bacillus subtilis) [µM] | MIC (Staphylococcus aureus [11]) [µM] | MIC (Klebsiella pneumoniae [12]) [µM] | HC10 (Erythrocyte [13]) [µM] | MIC (Pseudomonas aeruginosa [14]) [µM]
CC[C@H](C)[C@H](NC(=O)[C@H](CCCNC(=N)N)NC(=O)[C@H](CCCCN)NC(=O)[C@H](CC(C)C)NC(=O)[C@H](CC(C)C)NC(=O)CNCCc1c[nH]c2ccccc12)C(=O)N[C@@H](CCCCN)C(=O)N[C@H](C(=O)N[C@@H](CC(C)C)C(=O)N[C@@H](CC(C)C)C(N)=O)[C@@H](C)O (H-[Gly(N(CH2)2(3-indolyl))]LLKRIKTLL-NH2) | > 50 | 25 | 50 | – | – | – | – | – | – | – | – | – | – | – | – | –
CC[C@H](C)[C@H](NC(=O)[C@H](CCCNC(=N)N)NC(=O)[C@H](CCCCN)NC(=O)[C@H](CC(C)C)NC(=O)[C@H](CC(C)C)NC(=O)CN)C(=O)N[C@@H](CCCCN)C(=O)N[C@H](C(=O)N[C@@H](CC(C)C)C(=O)NCCC(N)=O)[C@@H](C)O (H-GLLKRIKTL[βAla]-NH2) | – | – | – | > 128 | > 128 | > 128 | > 128 | > 128 | > 128 | > 256 | – | – | – | – | – | –
CC[C@H](C)[C@H](NC(=O)[C@H](CCCNC(=N)N)NC(=O)[C@H](CCCCN)NC(=O)[C@H](CC(C)C)NC(=O)[C@H](CC(C)C)NC(=O)CCN)C(=O)N[C@@H](CCCCN)C(=O)NCCC(=O)N[C@@H](CC(C)C)C(=O)N[C@@H](CC(C)C)C(N)=O (H-[βAla]LLKRIK[βAla]LL-NH2) | – | – | – | 128 (≈ 146 µg/mL) | 64 (≈ 72.8 µg/mL) | > 128 | 64 (≈ 72.8 µg/mL) | 64 (≈ 72.8 µg/mL) | 64 (≈ 72.8 µg/mL) | > 256 | – | – | – | – | – | –
CC[C@H](C)[C@H](NC(=O)[C@H](CCCNC(=N)N)NC(=O)[C@@H](CCCCN)NC(=O)[C@H](CC(C)C)NC(=O)[C@H](CC(C)C)NC(=O)CN)C(=O)N[C@H](CCCCN)C(=O)N[C@H](C(=O)N[C@@H](CC(C)C)C(=O)N[C@@H](CC(C)C)C(N)=O)[C@@H](C)O | – | – | – | – | – | – | – | – | – | – | 256 (≈ 295 µg/mL) | 64 (≈ 73.8 µg/mL) | > 256 | 256 (≈ 295 µg/mL) | > 300 | 64 (≈ 73.8 µg/mL)
CC[C@H](C)[C@H](NC(=O)[C@H](CCCNC(=N)N)NC(=O)CCNC(=O)[C@H](CC(C)C)NC(=O)[C@H](CC(C)C)NC(=O)CN)C(=O)N[C@@H](CCCCN)C(=O)N[C@H](C(=O)N[C@@H](CC(C)C)C(=O)N[C@@H](CC(C)C)C(N)=O)[C@@H](C)O (H-GLL[βAla]RIKTLL-NH2) | – | – | – | > 128 | 32 (≈ 35.1 µg/mL) | > 128 | 128 (≈ 140 µg/mL) | > 128 | 64 (≈ 70.2 µg/mL) | > 256 | – | – | – | – | – | –
CC[C@H](C)[C@H](NC(=O)[C@@H](CCCNC(=N)N)NC(=O)[C@H](CCCCN)NC(=O)[C@H](CC(C)C)NC(=O)[C@H](CC(C)C)NC(=O)CN)C(=O)N[C@H](CCCCN)C(=O)N[C@H](C(=O)N[C@@H](CC(C)C)C(=O)N[C@@H](CC(C)C)C(N)=O)[C@@H](C)O | – | – | – | – | – | – | – | – | – | – | 256 (≈ 295 µg/mL) | 32 (≈ 36.9 µg/mL) | > 256 | 256 (≈ 295 µg/mL) | > 300 | 32 (≈ 36.9 µg/mL)
CC[C@H](C)[C@H](NC(=O)CCNC(=O)[C@H](CCCCN)NC(=O)[C@H](CC(C)C)NC(=O)[C@H](CC(C)C)NC(=O)CN)C(=O)N[C@@H](CCCCN)C(=O)N[C@H](C(=O)N[C@@H](CC(C)C)C(=O)N[C@@H](CC(C)C)C(N)=O)[C@@H](C)O (H-GLLK[βAla]IKTLL-NH2) | – | – | – | > 128 | 16 (≈ 17.1 µg/mL) | > 128 | > 128 | > 128 | 32 (≈ 34.2 µg/mL) | > 256 | – | – | – | – | – | –
CC[C@H](C)[C@H](NC(=O)[C@H](CCCNC(=N)N)NC(=O)[C@H](CCCCN)NC(=O)[C@H](CC(C)C)NC(=O)[C@H](CC(C)C)NC(=O)CN)C(=O)N[C@@H](CCCCN)C(=O)N[C@H](C(=O)NCCC(=O)N[C@@H](CC(C)C)C(N)=O)[C@@H](C)O (H-GLLKRIKT[βAla]L-NH2) | – | – | – | > 128 | > 128 | > 128 | > 128 | > 128 | > 128 | > 256 | – | – | – | – | – | –
CC[C@H](C)[C@H](NC(=O)[C@H](CCCNC(=N)N)NC(=O)[C@H](CCCCN)NC(=O)[C@H](CC(C)C)NC(=O)[C@H](CC(C)C)NC(=O)CN)C(=O)N[C@H](CCCCN)C(=O)N[C@@H](C(=O)N[C@@H](CC(C)C)C(=O)N[C@@H](CC(C)C)C(N)=O)[C@H](C)O | – | – | – | – | – | – | – | – | – | – | > 25 | 64 (≈ 73.8 µg/mL) | > 256 | > 256 | > 300 | 128 (≈ 148 µg/mL)
CC[C@H](C)[C@H](NC(=O)[C@H](CCCNC(=N)N)NC(=O)[C@H](CCCCN)NC(=O)[C@@H](CC(C)C)NC(=O)[C@H](CC(C)C)NC(=O)CN)C(=O)N[C@@H](CCCCN)C(=O)N[C@H](C(=O)N[C@H](CC(C)C)C(=O)N[C@@H](CC(C)C)C(N)=O)[C@@H](C)O | – | – | – | – | – | – | – | – | – | – | 32 (≈ 36.9 µg/mL) | 16 (≈ 18.5 µg/mL) | > 256 | 256 (≈ 295 µg/mL) | > 300 | 8 (≈ 9.23 µg/mL)
